In EP1767211B1, “Pharmaceutical agent containing hyaluronan as an active ingredient” (Glycoscience Laboratories, Inc., priority 2005, dated 2007):

Tests used:
[1] = system: experimental autoimmune encephalomyelitis (EAE); test: EAE (multiple sclerosis model) neural symptom evaluation after intraspinal administration; type: in vivo, Lewis rats; settings: for clinical score (EAE grade): Day 13 after antigen inoculation
K562 [2] = test: Cell viability by Rhodamine 123 staining after heat treatment; type: cell-based, human; settings: 20 minutes at 43°C (heat treatment) followed by 60 minutes at 37°C, HA4 100 ng/ml
Protocol: In this example, effect of the inventive pharmaceutical agent on cell viability was measured using Rhodamine 123. […] Accordingly, the degree of the staining with Rhodamine 123 serves as an index of the mitochondrial activity, thus the index of the cellular activity (see, non-patent reference 2).
In this example, a K562 (referred to as human erythroleukemia cell or human erythroblastoid leukemia cell) was used. The K562 was purchased from RIKEN, Japan.
In this example relating to preparation of test substance, HA4 was prepared at 100 ng/ml. Specifically, HA4 was prepared by the method of Tawada et al. (Tawada A, Masa T, Oonuki Y, Watanabe A, Matsuzaki Y, Asari A. Large-scale preparation, purification and characterization of hyaluronan oligosaccharides from 4-mers to 52-mers. Glycobiology, 2002; 12(7):421-6) and the concentration was adjusted using a physiological saline.
First, the K562 was incubated under the condition described below. The culture medium for the K562 was an RPMI-1640 medium. In this example, the K562 was incubated in Groups 1 to 3 shown below. Each group was cultured under the condition described below. […]
The K562 after washing was inoculated at 1×10^4 cells/ml in a 96-well plate and a photograph was taken using a fluorescent microscope (Nikon) . The image was sent to anAdobe Photoshop (Adobe Systems) where the fluorescent intensity of a cell was measured.

K562 [3] = test: DNA chip gene expression analysis, cell viability-related genes (Example 3); type: cell-based, human; settings: 42°C 20 minutes then 37°C 30 minutes, HA4 10 ng/ml
Protocol: First, the K562 was incubated in Groups 1 and 2 in the […] described above. The both groups were incubated at 42°C for 20 minutes followed by 37°C for 30 minutes. The medium of Group 2 was supplemented with HA4 (10 ng/ml).
(§1) After the incubation, the medium was removed by centrifugation at 1000 rpm. The obtained cells were stored in a deep freezer at -60°C. From the cells thus stored, RNA was extracted according to a standard method. The extracted RNA was subjected to the DNA chip to analyze gene expressions. The DNA chip gene expression analysis was subtracted to DNA CHIP Research Inc. Specifically, the trade name: AceGene Human Oligo Chip 30K 1 Chip Version manufactured by DNACHIP Research Inc. was employed.

K562 [4] = test: DNA chip gene expression analysis, cytokine- and chemokine-associated genes (Example 4); type: cell-based, human; settings: 42°C 20 minutes then 37°C 30 minutes, HA4 10 ng/ml
Protocol: Experimental method: First, the K562 was incubated in Groups 1 and 2 in the RPMI medium described above. The both groups were incubated at 42°C for 20 minutes followed by 37°C for 30 minutes. The medium of Group 2 was supplemented with HA4 (10 ng/ml).
as §1, with “analyze the” for “analyze”, “expression.” for “expressions.”, “DNA CHIP” for “DNACHIP”

U937 cell [5] = test: Cytokine production under LPS stimulation, cytokine antibody array; type: cell-based, human; settings: LPS 100 ng/ml, HA4 100 ng/ml, 24 hours
Protocol: (§2) • 2. Cell: U937 cell (human monocyte line), purchased from Dainipon Sumitomo Seiyaku. • 3. Culture medium: RPMI medium (containing 10% FBS). • 4. LPS E.coli, 0111B4, Chemicon.
(§3) An U937 cell was disseminated in a 2 ml aliquot in a 6-well microplate at 5×10^5 cell/ml, supplemented with an LPS at a final concentration of 100 or 1000 ng/ml, and then incubated for 24 hours with 5% CO2 at 37°C in the presence or absence of HA4 (100 ng/ml) . The culture supernatant was centrifuged at 3000 rpm for 5 minutes to obtain a test substance. A 1 ml aliquot of the recovered supernatant was subjected to Human Cytokine Antibody array (Raybio) using an ELISA (ENDOGEN) to detect the production of various cytokines.
A 2 ml aliquot of a blocking buffer was added to a membrane blotted with an antibody, which was then shaken for 30 minutes. The blocking buffer was removed, and a 1 ml aliquot of the culture supernatant was added and shaken at room temperature for 2 hours, washed 5 times, and then admixed with a primary antibody solution. After agitating at room temperature for 1.5 hours followed by washing 5 times, a secondary antibody solution was added and agitated overnight at 4°C. After washing 5 times, a chemiluminescence was allowed to develop and photographed by a Polaroid. The photograph was scanned to obtain its digital data which were subjected to an Image J to measure the luminescent intensity. The ratio based on the luminescent intensity of an internal standard placed in 6 positions in the membrane was calculated. In addition, a relative level (%) based on the expression level in a non-treatment group (NT) being 100 was calculated.

U937 cell [6] = test: IL-6 production under LPS stimulation, ELISA; type: cell-based, human; settings: LPS 100 ng/ml, HA4 100 ng/ml, 24 hours
Protocol: as §2, §3
To a microplate, 50 µl of a biotinylated antibody solution and 50 µl of the culture supernatant were added, and allowed to stand at room temperature for 2 hours. After washing with a washing buffer three times, 100 µl of a streptoavidin-HRP solution was added, allowed to stand at room temperature for 30 minutes, and washed with the washing buffer three times. A TMB was added, allowed to stand for at room temperature 30 minutes, and then a quencher was added to stop the reaction and the absorbance at 450 nm was measured (reference: 562 nm). The IL-6 concentration (pg/ml) was calculated based on the standard solutions measured in parallel.

cerebrospinal tissue = test: DNA array analysis of cerebrospinal tissue of EAE model animals; type: in vivo, Lewis rats; settings: Day 14, intrathecal continuous administration 6 µg/day immediately after inoculation of antigen
[7] = Cytotoxicity (general statement); settings: at a dose exhibiting a biological activity of a pharmaceutical
[8] = intraspinal continuous administration immediately after inoculation, 6 µg/day, 22 Days
[9] = intraspinal single administration after onset of disease, 60 µg

## tetrasaccharide hyaluronan [HA4]
[1]; intraspinal continuous administration from onset of disease, 6 µg/day, 11 Days
  clinical score (EAE grade): 1.5 ± 1.0
[1]; [8]
  clinical score (EAE grade): 0.2 ± 0.41
  cases developing the disease: 1/6
[1]; [9]
  clinical score (EAE grade): 1.8 ± 0.5
  diseased period: 5.0 ± 1.5 days
K562 [2]
  Rhodamine 123 staining performance (fluorescent intensity): inhibited such a reduction
K562 [3]; gene Caspase 2
  HAA+/- ratio: 0.27
K562 [3]; gene DNAJ2
  HAA+/- ratio: 0.34
K562 [3]; gene Granzyme H
  HAA+/- ratio: 0.38
K562 [3]; gene STK17b (DARK2)
  HAA+/- ratio: 0.09
K562 [3]; gene TAF9L
  HAA+/- ratio: 0.43
K562 [3]; gene dnaj (hsp40) homolog
  HAA+/- ratio: 2.62
K562 [3]; gene pawr (Par-4)
  HAA+/- ratio: 0.45
K562 [4]; gene CCL28
  HA4(+)/HA4(-) ratio: 0.32
K562 [4]; gene IFN-γ
  HA4(+)/HA4(-) ratio: 0.11
K562 [4]; gene IFN-ω1
  HA4(+)/HA4(-) ratio: 0.5
K562 [4]; gene IL-1β
  HA4(+)/HA4(-) ratio: 0.36
K562 [4]; gene IL-5
  HA4(+)/HA4(-) ratio: 0.28
K562 [4]; gene IL-17b
  HA4(+)/HA4(-) ratio: 0.31
K562 [4]; gene IL-18RAP
  HA4(+)/HA4(-) ratio: 0.32
K562 [4]; gene Mig(CXCL9)
  HA4(+)/HA4(-) ratio: 0.11
U937 cell [5]
  production of IL-1α: reduction
  production of IL-1β: reduction
  production of IL-6: reduction
  production of TGF-β: reduction
  production of TNF-α: reduction
  production of TNF-β: reduction
U937 cell [6]
  production of IL-6: reduction
Cerebrospinal tissue; Decoy TRAIL receptor without death domain
  Expression level ratio (HA/physiological saline): 2.0
Cerebrospinal tissue; Fibroblast growth factor receptor substrate 2
  Expression level ratio (HA/physiological saline): 2.3
Cerebrospinal tissue; Transthyretin
  Expression level ratio (HA/physiological saline): 0.38
[7]
  cytotoxicity: almost or completely no cytotoxicity
